Where two headings read alike, the source gives them in different places.

These results are taken from article PMC7241010, “In Vivo and In Vitro Study of N-Methyltaurine on Pharmacokinetics and Antimuscle Atrophic Effects in Mice” (ACS Omega, 2020).

One series has as its system ICR mice. As to the kind of experiment: Dexamethasone-induced muscle atrophy model in ICR mice. It is filed as in vivo, mouse. The method, then: Next, to investigate the effect of NMT on skeletal muscle atrophy, a mouse atrophy model induced by Dex was employed[41] (Figure 5). Mice were administered with Dex daily (i.p., 10 mg/kg body weight) and maintained on drinking water either with no addition or containing 0.5% NMT.
To induce muscle atrophy in ICR mice, Dex was suspended in saline (10 mg/mL), and the mixture was intraperitoneally (i.p.) injected at 10 mg/kg body weight once a day for 10 days.[41] Body weight was monitored daily. Then, mice were euthanized by cervical dislocation, and muscles were isolated from the mice. The isolated tissue was immediately froze in liquid nitrogen and stored at −80 °C.

Series [1] concerns C2C12 myotubes. Kind of series: Dex-induced myotube atrophy in C2C12 cells (myotube diameter). Type of series: cell-based, mouse. The settings on record: 24 h. As to the method:
To explore the beneficial effect of NMT against skeletal muscle atrophy in mice, we investigated its protective effect using cultures of C2C12 myotubes.
C2C12 mouse myoblasts were purchased from ATCC (American Type Culture Collection) and were cultured in DMEM containing 10% fetal bovine serum. Cell lines were not tested for mycoplasma contamination in the present study. To induce differentiation of the myotubes, cells were cultured in DMEM containing 2% fetal bovine serum for 1 week. After differentiation, cells were treated with Dex (final concentration, 50 μM) with or without NMT.[28] Myotube diameter was measured from microscopic images taken after treatment with Dex.

Series [2] is described as follows: Pharmacokinetics and oral bioavailability of NMT in mice (plasma NMT by HPLC). The settings on record: for AUC(0-t): read-out: AUC0–180min (converted). Type of series: in vivo, mouse. The method, then: To study the pharmacokinetic parameters and the oral bioavailability of NMT, we tested the serum concentration of NMT after p.o. or i.v. injection of NMT (Figure 2). Biological fluid was sampled following the injection of NMT. […] Oral bioavailability is defined as the fraction of the dose that reaches the systemic circulation. Blood samples were collected at 10 to 180 min after NMT administration and then examined by HPLC.
All experimental procedures were approved by the Institutional Animal Care and Use Committee of the Fukui Prefectural University. Three-month-old male ICR mice were used for this study. […] Blood samples were collected from the facial vein (for i.v. injection) or the tail vein (for p.o. injection) at 10, 20, 30, 60, 120, and 180 min after NMT administration.
(§1) Plasma samples were mixed with an equal volume of 5% sulfosalicylic acid (SSA) containing the internal standard chemical sarcosine (0.1 mM). Tissues in 10 volumes of 5% SSA containing an internal control were homogenized using a Polytron homogenizer. Samples were centrifuged, and the supernatant was filtered with 0.45 μm filters and then neutralized with NaHCO3.
(§2) NMT was measured by HPLC after derivatization with 9-fluorenylmethyloxycarbonyl chloride (FMOC-Cl) according to a previous report with brief modification.[49] First, equal volumes of o-phthalaldehyde (OPA) reagent (5 mM OPA, 23 mM 3-mercaptopropionic acid, 10 mM boric acid, pH 10.4) was added to acid-extracted samples and incubated at room temperature for 1 min for the derivatization of the primary amine. Then, 1 volume of FMOC-Cl reagent (3 mM FMOC-Cl in acetone) was added to the mixture and incubated for additional 1 min for the derivatization of residual secondary amine. After dilution with HPLC mobile phase buffer A (10 mM potassium phosphate, pH 7.3), samples were subjected to HPLC analysis performed on an UltiMate 3000 rapid separation binary system (Thermo Fisher, USA) or Prominence HPLC system (Shimadzu, Japan). Samples were injected into a ZORBAX Eclipse Plus C18 column (Agilent, USA). Mobile phases A (10 mM potassium phosphate, pH 7.3) and B (acetonitrile) were used. The column oven temperature was set at 40 °C. The flow rate of the mobile phase was 1.5 mL/min. The gradient of the mobile phase was increased from 2 to 88% buffer B (from 0.84 to 11.9 min) and was kept at 100% buffer B for 3 min followed by 2% for 15 min. N-Methyltaurine derivatized by FMOC-Cl was monitored by a fluorescence detector (excitation: 266 nm, emission: 305 nm) and diode array detector (Shimadzu).
Pharmacokinetic parameters were calculated by using R (Package “PK”, ver. 1.3-4).

For another series, the system named is Atrogin-1 and MuRF1. As to the kind of experiment: Gene expression of Atrogin-1 and MuRF1 in C2C12 myotubes (qRT-PCR). It is filed as cell-based, mouse. The settings on record: C2C12 myotubes treated with Dex and NMT. As to the method:
We tested whether these ubiquitin ligases are involved in the suppressive effect of NMT against muscle atrophy in the C2C12 myotube.
Total RNA was isolated from C2C12 cells using Sepasol Super G (Nacalai Tesque, Kyoto, Japan), and cDNA was generated by using ReverTra Ace (Toyobo, Osaka, Japan). Quantitative RT-PCR analysis was performed using Applied Biosystems StepOne (Applied Biosystems) with THUNDERBIRD SYBR qPCR Mix (Toyobo). The primers used are as follows: Atrogin-1 forward: 5′-TTCAG CAGCC TGAAC TACGA-3′, reverse: 5′-AGTAT CCATG GCGCT CCTTC-3′. MuRF1 forward: 5′-GCGTG ACCAC AGAGG GTAAA-3′, reverse: 5′-CTCTG CGTCC AGAGC GTG-3′. GAPDH forward: 5′-GCCGG TGCTG AGTAT GTCGT-3′, reverse: 5′-CCCTT TTGGC TCCAC CCTT-3′.
(In general: Quantitative PCR measures a nucleic acid by following its amplification.)

The test system of series [3] is taurine uptake in brain slices. The settings on record: cited from earlier work.
Series [4] can be described thus: Tissue distribution of NMT after 0.5% NMT in drinking water. It is filed as in vivo, mouse. The settings on record: mice. The method, then:
To evaluate the tissue distribution of NMT in mice after administration in the drinking water, the concentration of NMT was measured in tissues and serum 4 days after the original administration (Figure 3). The tissue concentration of NMT was analyzed by HPLC. NMT was widely distributed in the tissues of mice, including in brain, liver, kidney, heart, and muscles. The tissue concentration of NMT was much higher than that of serum concentration, with one exception, the skin (Figure 3).
To measure NMT in the serum and tissues after long-term treatment with NMT, NMT dissolved in the drinking water (0.5%) was given to mice for 4 days. After that, mice were anesthetized by medetomidine (0.3 mg/kg body weight; FUJIFILM Wako Pure Chemical), butorphanol (5 mg/kg body weight; FUJIFILM Wako Pure Chemical), and midazolam (4 mg/kg body weight; FUJIFILM Wako Pure Chemical), and then blood and tissues were collected. Tissues were kept in −80 °C until use.
as §1, §2

The conditions of series [5]: rats; cited from earlier work.
The subject of a further series is taurine transport system. The settings on record: human intestine cells, cited from earlier work.
Series [6] concerns C2C12 myotubes. The settings on record: in vitro exposure to dexamethasone; cited from earlier work.
The mark [7] stands for this setting: drinking water containing 0.5% NMT for 4 days, average.
[8] abbreviates: Dex i.p. 10 mg/kg daily for 10 days, 0.5% NMT in drinking water.

For `C[C@@H]1C[C@H]2[C@@H]3CCC4=CC(=O)C=C[C@]4(C)[C@@]3(F)[C@@H](O)C[C@]2(C)[C@@]1(O)C(=O)CO` [Dex, dexamethasone, reference compound], in the series on ICR mice (Dex i.p. 10 mg/kg body weight daily), the “effect on body weight” value was “caused a continuous loss of body weight”. Moreover, the “effect on myotube width” value with C2C12 myotubes [1] (Dex 50 μM) is “reduced the width of the myotube”.
As for `CNCCS(=O)(=O)O` [NMT, N-Methyltaurine], the AUC(0-t) in [2] (male, ICR, mouse, iv, i.v. 0.5 mg/kg BW, plasma) is 900 ng·h/mL. Besides, the bioavailability (in general, the share of a dose that reaches the circulation, judged against a reference dose that is usually intravenous) in series [2] (male, ICR, mouse, plasma, oral, 0.5 mg/kg, p.o. 0.5 mg/kg BW vs i.v. 0.5 mg/kg BW, read-out: bioavailability) is 96%. Further, the bioavailability in series [2] (male, ICR, mouse, plasma, oral, 5 mg/kg BW, p.o. 5 mg/kg BW vs i.v. 0.5 mg/kg BW, read-out: bioavailability) came out at 58%. For the same compound, the AUC(0-t) in [2] (male, ICR, mouse, po, p.o. 0.5 mg/kg BW, plasma) is 865 ng·h/mL. Besides, the AUC(0-t) in series [2] (male, ICR, mouse, po, p.o. 5 mg/kg BW, plasma) is 5250 ng·h/mL. Moreover, in series [2] (p.o. 0.5 mg/kg BW vs i.v. 0.5 mg/kg BW, 0.5 mg/kg), the bioavailability is reported as 96.1%. For the same compound, the “effect on Dex-induced Atrogin-1 and MuRF1 gene expression” value in the series with Atrogin-1 and MuRF1 is listed as “did not act by downregulating those genes”. The “effect on taurine uptake” value in [3] was “inhibits taurine uptake”. In addition, the Kp at 4 days in series [4] (ICR, mouse, 0.5 % in drinking water, oral NMT, various tissues, skin is an exception, read-out: tissue NMT relative to serum concentration of NMT) lay in the range of 10 to 100. In [4] (setting [7]), the “Tissue NMT, brain” value is given as 0.84 nmol/g wet; the “Tissue NMT, heart” value is reported as 3.5 nmol/g wet; the “Tissue NMT, kidney” value is on record as 0.39 nmol/g wet; the “Tissue NMT, liver” value was found to be 0.50 nmol/g wet. In addition, in series [4] (setting [7]), the “Tissue NMT, muscle” value is given as 0.17 nmol/g wet; the “Tissue NMT, serum” value is listed as 0.033 nmol/g wet; the “Tissue NMT, skin” value stood at 0.019 nmol/g wet. Further, in the series with ICR mice (setting [8]), the “effect on Dex-induced loss in wet weight of gastrocnemius muscle” value is reported as “attenuated Dex-induced loss in wet weight” and the “effect on Dex-induced loss in wet weight of tibial anterior muscle” value was “attenuated Dex-induced loss in wet weight”. Also, the “effect on Dex-induced body weight loss” value in the series on ICR mice (Dex i.p. 10 mg/kg daily, 0.5% NMT in drinking water) was “attenuated body weight loss”. In addition, the “effect on Dex-induced decline in myotube width” value in the series on C2C12 myotubes [1] (Dex 50 μM + NMT 20 mM) is listed as “prevented the decline in myotube width”.
For `NCCS(=O)(=O)O` [taurine], in [5], the oral bioavailability is ~100%. Further, the “concentration at which transport activity is almost saturated” value in the series with taurine transport system was ~50 µM. Further, the Km (in general, the substrate concentration at which the rate is half of its maximum) in the series with taurine transport system (read-out: Km of taurine transport) is 4.8 µM. For the same compound, the “effect on Dex-induced muscle atrophy in vitro” value with C2C12 myotubes [6] is recorded as “attenuates muscle atrophy”.
